SMILES strings stand for the structures. Like-named read-outs stand apart in the source and are kept apart here.

We go through seven compounds from patent US20160287712A1, “FATTY ACID NIACIN CONJUGATES” (priority 2013, published 2016).

The nature of data set [1]: Compound hydrolysis and tissue distribution: test compound and metabolites in liver after oral dosing for 3.5 days. The format is in vivo, Male Sprague-Dawley rats. As to conditions: for concentration at 4 h / Amount of Analyte: Niacin-linker Metabolite / Amount of Analyte: Nicotinuric Acid / Amount of Analyte: Linker-Fatty Acid Metabolite: male, Sprague-Dawley; for concentration at 4 h: liver homogenate, rat liver, 100 mg/kg oral gavage every 12 hours, 7 doses, 4 hours after last dose, read-out: Amount of Analyte: Intact Test Compound; for Amount of Analyte: Niacin-linker Metabolite / Amount of Analyte: Nicotinuric Acid / Amount of Analyte: Linker-Fatty Acid Metabolite: 4 h. On the procedure:
The amount of test compound and its metabolites in the liver provides information on distribution of such compounds within the rat, as well as information on stability of the test compound, such as resistance of the test compound to hydrolytic degradation. […] A test compound was administered to a single group of Male Sprague-Dawley rats. Each group contained 6 animals. […] Two additional animals were administered vehicle alone as controls. Animals were dosed every 12 hours for 3.5 days (7 doses total). Rats were fasted overnight after the PM dose on day 3 of study. On day 4 the rats were euthanized 4 hours after the last dose. Vehicle treated rats were also fasted prior to collection of tissue samples on day 4. At 4 hours after last dose, the livers were excised, rinsed and weight of each tissue recorded. Livers were snap frozen in liquid nitrogen and stored in 50 mL polypropylene conical centrifuge tubes at −80° C. Liver tissue was homogenized in PBS at a volume of 2 mL per gram of tissue. The amount of test compound and various metabolites of the test compound present in the liver homogenates were analyzed by LC/MS/MS as done in the previous example. […] In order to quantitate each of these compounds in the homogenates, standard curves in blank liver homogenates were generated using the appropriate internal standard.

The nature of data set [2]: Pharmacokinetics after oral administration to rats with jugular vein and portal vein catheters. It is filed as in vivo, Male Sprague-Dawley rats. As to conditions: rat. On the procedure:
Pharmacokinetic studies were conducted in male Sprague-Dawley rats, with an approximate weight of 250-300 g at dose initiation. All animals were instrumented with a jugular vein catheter (JVC) and a portal vein catheter (PVC) to facilitate blood collections. Jugular and Portal vein catheterizations were conducted at Charles River Laboratories under protocols approved by the Institutional Animal Care and Use Committee (IACUC) of Charles River Lab (Approved PO 4122010).
Animals were anaesthetized with ketamine and xylazine administered intraperitoneally and provided buprenorphine subcutaneously. The skin overlying the scapula and over the right jugular vein were shaved and skin aseptically prepared. A 1.1.5 cm cranial-caudal incision, followed by blunt dissection was performed to expose the jugular vein, which was then catheterized using either a PU or blended catheter. After fixation of the catheter, it was flushed with sterile saline to verify patency. The distal end of the catheter was then tunneled subcutaneously to the dorsal scapular region where it was exteriorized. Catheter patency was verified again. The catheter was then locked with 50% heparinized dextrose solution. The exteriorized end of the catheter was sealed with a stainless steel plug. The skin incision was then closed with wound clips.
Animals were anaesthetized with ketamine and xylazine administered intraperitoneally. A mid-line incision 1-2 cm was made in the abdominal cavity and the portal vein was detached near the liver. To prevent bleeding, the portal vein was ligated temporarily as the catheter was inserted. The cathether (3.5 Fr polyurethane tube, Access™ technologies Inc.) was inserted immediately and fixed by a purse-string suture on the portal vein. The time to reperfusion was about 1 min after intercepted blood flow. This method for insertion of catheter can avoid the occlusion of the vessel. In addition, a catheter with trumpet-shaped opening was used to prevent the catheter from slipping out of the vessel with minimizing the effect of blood flow. Another end of the catheter was passed subcutaneously to the dorsal back of the neck and the laparotomy was closed in two layers, with a 4/0 silk blade to the muscle, and a surgical clip to close the skin.
Male Sprague-Dawley rats instrumented with jugular vein catheter and portal vein catheter were separated into groups of 4. The test compound was administered by oral gavage at dose of 30 mg/kg in a vehicle consisting of Tween (specifically Tween 80), Peceol, PEG400 (at a ratio of 40:50:10) along with 0.2% tocopherol and emulsified in water, with a water to oil ratio of 66:1 (the dose concentration was 6 mg/mL and the dose volume was 5 mL/kg). Whole blood (0.3 mL) was collected at both the jugular and portal vein at the following time points: 10, 20, 40 min, 1, 1.5, 2 and 4 hours post-dose. Blood samples were placed into tubes containing sodium heparin anticoagulant. Each whole blood sample was placed on ice until sample could be centrifuged at 2200×g at 5° C.±3° C. for 10 min to isolate plasma.
The amount of the various metabolites and parent compound present in the plasma samples were then analyzed by LC/MS/MS using an Agilent 6410 Triple Quadrupole with an ESI interface. The column used was a Phenomenex Gemini C6 Phenyl 110A 50×4.6 mm, 1.8 μM. The mobile phase used was water and methanol, each containing 0.1% formic acid. Data was further analyzed by WinNolin Software. For a given test compound, the following compounds were quantitated from the collected plasma samples: 1) test compound, 2) niacin linker, 3) linker-EPA, 4) niacin and 5) nicotinuric acid.
In order to quantitate each of these compounds in plasma, standard curves in blank plasma were generated using the appropriate internal standard (the final concentration range used were 8333 ng/mL, 2083 ng/mL, 521 ng/mL, 130.2 ng/mL, 32.5 ng/mL, 8.1 ng/mL, 2.0 ng/mL and 0.5 ng/mL). […]

Where [3] appears, read: male, Sprague-Dawley, in vivo, po, 30 mg/kg, Peripheral AUClast, parent compound.
Where [4] appears, read: male, Sprague-Dawley, in vivo, po, 30 mg/kg, Peripheral Cmax, parent compound.
[5] abbreviates: male, Sprague-Dawley, in vivo, po, 30 mg/kg, Portal AUClast, parent compound.
[6] abbreviates: male, Sprague-Dawley, in vivo, po, 30 mg/kg, Portal Cmax, parent compound.
The mark [7] stands for this setting: male, Sprague-Dawley, in vivo, po, 30 mg/kg.

In the case of `CC/C=C\C/C=C\C/C=C\C/C=C\C/C=C\CCCC(=O)N(C)CCNC(=O)c1cccnc1` [Compound I-15, N-(2-((5Z,8Z,11Z,14Z,17Z)—N-methylicosa-5,8,11,14,17-pentaenamido)ethyl)nicotinamide], in data set [1], the concentration at 4 h is 459 ng/g. The results for the AUC(0-t) in data set [2] (setting [3]) and in data set [2] (setting [5]) were 767 ng·h/mL and 5060 ng·h/mL, respectively. In addition, the Cmax in data set [2] (setting [4]) came to 360 ng/mL; in data set [2] (setting [6]), 4520 ng/mL.

Regarding `CC/C=C\C/C=C\C/C=C\C/C=C\C/C=C\CCCC(=O)N[C@H]1CCN(C(=O)c2cccnc2)C1` [Compound I-23, (5Z,8Z,11Z,14Z,17Z)—N—((S)-1-nicotinoylpyrrolidin-3-yl)icosa-5,8,11,14,17-pentaenamide], in data set [1] (rat, in vivo, po, 100 mg/kg), the “Amount of Analyte: Niacin-linker Metabolite” value is recorded as 2290 nanograms of analyte per gram of tissue homogenate. The “ratio of Portal AUClast of Parent compound to Portal AUClast of Niacin-linker metabolite” value (“ratio … of Niacin-linker metabolite” below) in data set [2] (setting [7]) was 0.17. Also, the AUC(0-t) in data set [2] (setting [3]) was determined as 60 ng·h/mL; in data set [2] (setting [5]), 1440 ng·h/mL. Also, the Cmax in data set [2] (setting [4]) stood at 68 ng/mL; in data set [2] (setting [6]) it was 2600 ng/mL.

Turning to `CC/C=C\C/C=C\C/C=C\C/C=C\C/C=C\C/C=C\CCC(=O)NCCNC(=O)c1cccnc1` [Compound I-7, N-(2-(4Z,7Z,10Z,13Z,16Z,19Z)-docosa-4,7,10,13,16,19-hexaenamidoethyl)nicotinamide, reference compound], the concentration at 4 h in data set [1] amounted to 6.7 ng/g. Also, the Cmax came to 238 ng/mL in data set [2] (male, Sprague-Dawley, jugular vein plasma, po, 30 mg/kg, 30 mg/kg oral gavage, jugular vein plasma, read-out: Peripheral Cmax, parent compound) and 1850 ng/mL in data set [2] (male, Sprague-Dawley, portal vein plasma, po, 30 mg/kg, 30 mg/kg oral gavage, portal vein plasma, read-out: Portal Cmax, parent compound). For the same compound, the AUC(0-t) in data set [2] (male, Sprague-Dawley, jugular vein plasma, po, 30 mg/kg, 30 mg/kg oral gavage, jugular vein plasma, t=10 min to 4 hrs, read-out: Peripheral AUClast, parent compound) turned out to be 353 ng·h/mL; in data set [2] (male, Sprague-Dawley, portal vein plasma, po, 30 mg/kg, 30 mg/kg oral gavage, portal vein plasma, t=10 min to 4 hrs, read-out: Portal AUClast, parent compound), 1460 ng·h/mL. For the same compound, in data set [2] (30 mg/kg oral gavage), the “portal concentration of the parent compound compared to compounds I-15 and I-24” value is listed as “lower”.

On to `CC/C=C\C/C=C\C/C=C\C/C=C\C/C=C\CCCC(=O)NCCNC(=O)c1cccnc1` [Compound I-8, N-(2-(5Z,8Z,11Z,14Z,17Z)-eicosa-5,8,11,14,17-pentaenamidoethyl)nicotinamide, reference compound], for which the “Amount of Analyte: Niacin-linker Metabolite” value in data set [1] (rat, in vivo, po, 100 mg/kg) is 2351 nanograms of analyte per gram of tissue homogenate. The “Amount of Analyte: Nicotinuric Acid” value in data set [1] (rat, in vivo, po, 100 mg/kg) was 785 nanograms of analyte per gram of tissue homogenate. In addition, the “ratio … of Niacin-linker metabolite” value in data set [2] (setting [7]) worked out at 0.06. Moreover, the AUC(0-t) was 81 ng·h/mL in data set [2] (setting [3]) and 662 ng·h/mL in data set [2] (setting [5]). Also, the Cmax is 78 ng/mL in data set [2] (setting [4]) and 756 ng/mL in data set [2] (setting [6]).

Regarding `CC/C=C\C/C=C\C/C=C\C/C=C\C/C=C\CCCC(=O)N1CC[C@H](NC(=O)c2cccnc2)C1` [Compound I-24, N—((S)-1-((5Z,8Z,11Z,14Z,17Z)-icosa-5,8,11,14,17-pentaenoyl)pyrrolidin-3-yl)nicotinamide], in data set [1] (rat, in vivo, po, 100 mg/kg), the “Amount of Analyte: Linker-Fatty Acid Metabolite” value is on record as 77.2 nanograms of analyte per gram of tissue homogenate, the “Amount of Analyte: Niacin-linker Metabolite” value is recorded as 2826 nanograms of analyte per gram of tissue homogenate and the “amount of intact test compound present in the liver compared to other compounds of Table 9” value is given as “significantly larger”. Also, the “ratio … of Niacin-linker metabolite” value in data set [2] (setting [7]) came to 41. Besides, the AUC(0-t) in data set [2] (setting [3]) came to 964 ng·h/mL. The Cmax in data set [2] (setting [4]) was 565 ng/mL. Moreover, the AUC(0-t) in data set [2] (setting [5]) was 6640 ng·h/mL. The Cmax in data set [2] (setting [6]) is 5320 ng/mL.

As for `CC/C=C\C/C=C\C/C=C\C/C=C\C/C=C\CCCC(=O)N1CCN(C(=O)c2cccnc2)CC1` [Compound I-13, (5Z,8Z,11Z,14Z,17Z)-1-(4-nicotinoylpiperazin-1-yl)icosa-5,8,11,14,17-pentaen-1-one], in data set [1] (rat, in vivo, po, 100 mg/kg), the “Amount of Analyte: Linker-Fatty Acid Metabolite” value is recorded as 15782 nanograms of analyte per gram of tissue homogenate, the “Amount of Analyte: Niacin-linker Metabolite” value is 2023 nanograms of analyte per gram of tissue homogenate and the “Amount of Analyte: Nicotinuric Acid” value is recorded as 15.1 nanograms of analyte per gram of tissue homogenate. In addition, the “ratio … of Niacin-linker metabolite” value in data set [2] (setting [7]) stood at 0.83. Also, the AUC(0-t) in data set [2] (setting [3]) was determined as 142 ng·h/mL. Also, in data set [2] (setting [4]), the Cmax was 80 ng/mL. Further, the AUC(0-t) in data set [2] (setting [5]) is 3560 ng·h/mL. The Cmax in data set [2] (setting [6]) worked out at 6070 ng/mL.

For `CC/C=C\C/C=C\C/C=C\C/C=C\C/C=C\CCCC(=O)N[C@H]1CC[C@H](CNC(=O)c2cccnc2)CC1` [Compound I-41, N-(((1R,4R)-4-((5Z,8Z,11Z,14Z,17Z)-icosa-5,8,11,14,17-pentaenamido)cyclohexyl)methyl)nicotinamide], in data set [2] (in vivo, po, 30 mg/kg), the “Peripheral AUClast, parent compound” value is 218 ng·h/mL; the “Portal AUClast, parent compound” value was 2,507 hr*ng/mL; the “ratio … of Niacin-linker metabolite” value is given as 1.3.

A word on the Cmax: it is the peak of the concentration-time curve.
